According to BindingDB's records for doi:10.1124/jpet.103.058636 (National Institutes of Health, 2004):
pKi: −log10 of the molar value.

Molecular target: Sodium-dependent serotonin transporter (Mus musculus, UniProt Q60857)
Sequence (Q60857 whole entry): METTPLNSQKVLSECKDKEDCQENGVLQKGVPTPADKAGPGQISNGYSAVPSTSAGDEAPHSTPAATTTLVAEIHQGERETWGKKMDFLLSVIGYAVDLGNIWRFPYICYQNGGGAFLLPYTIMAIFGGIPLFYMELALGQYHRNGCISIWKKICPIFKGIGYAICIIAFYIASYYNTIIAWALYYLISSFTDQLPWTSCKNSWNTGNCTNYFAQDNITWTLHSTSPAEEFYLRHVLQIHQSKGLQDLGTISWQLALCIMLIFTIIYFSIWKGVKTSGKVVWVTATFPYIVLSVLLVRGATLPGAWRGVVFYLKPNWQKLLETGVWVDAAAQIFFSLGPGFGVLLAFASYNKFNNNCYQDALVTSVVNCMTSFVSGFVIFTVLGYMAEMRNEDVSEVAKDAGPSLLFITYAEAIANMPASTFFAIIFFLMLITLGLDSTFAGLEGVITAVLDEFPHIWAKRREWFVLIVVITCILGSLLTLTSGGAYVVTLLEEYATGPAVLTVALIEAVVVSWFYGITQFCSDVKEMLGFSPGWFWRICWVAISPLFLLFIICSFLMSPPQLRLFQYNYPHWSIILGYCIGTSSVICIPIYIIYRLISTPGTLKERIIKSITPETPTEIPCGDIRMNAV

## CCNC(C)Cc1cccc(C(F)(F)F)c1 (stereo unspecified) [NSC_3337]
  pKi: 5.15
